Measurements taken from ChEMBL document CHEMBL6103627, “(±)-Feionemycin A and Chromonemycins A-D, Rearranged Aromatic Polyketides Uncovered by Type II Polyketide Gene Cluster Expression” (J Nat Prod, 2025).
Where a name gives a salt, the structure may show the parent alone.

Assays:
[1] = Antitumor activity against human Cisplatin/etoposide-resistant NCI-H446/EP cells assessed as inhibition of cell growth by SRB assay; assay type: functional, cell-based
NCI-H446 = experiment: Antitumor activity against human NCI-H446 cells assessed as inhibition of cell growth by SRB assay; assay type: functional, cell-based
K562 = experiment: Antitumor activity against human K562 cells assessed as inhibition cell growth by MTT assay; assay type: functional, cell-based
MDA-MB-231 = experiment: Antitumor activity against human MDA-MB-231 cells assessed as inhibition of cell growth by SRB assay; assay type: functional, cell-based
ASPC1 = experiment: Antitumor activity against human ASPC1 cells assessed as inhibition of cell growth by SRB assay; assay type: functional, cell-based
Staphylococcus aureus [2] = experiment: Antimicrobial activity against Staphylococcus aureus ATCC 29213 assessed as inhibition of microbial growth incubated for 24 hrs by microdilution method; assay type: functional, organism-based
Bacillus cereus = experiment: Antimicrobial activity against Bacillus cereus ATCC 4342 assessed as inhibition of microbial growth incubated for 24 hrs by microdilution method; assay type: functional, organism-based
Staphylococcus aureus [3] = experiment: Antimicrobial activity against methicillin-resistant Staphylococcus aureus assessed as inhibition of microbial growth incubated for 24 hrs by microdilution method; assay type: functional, organism-based
[4] = Antitumor activity against human L02 cells assessed as inhibition of cell growth by SRB assay; assay type: toxicity, cell-based

IC50 (NCI-H446)	IC50 (ASPC1)	SMILES	IC50 [1]	IC50 (K562)	IC50 (MDA-MB-231)	Activity (Staphylococcus aureus [2])	Activity (Bacillus cereus)	Activity (Staphylococcus aureus [3])	IC50 [4]
> 50 µM	> 50 µM	Cc1cc(=O)c2c3c(c(O)cc2o1)/C(=C/c1cc(=O)cc(O)o1)C[C@@H](O)C3	> 50 µM	> 50 µM	> 50 µM	–	–	–	> 50 µM
> 50 µM	> 50 µM	Cc1cc(=O)c2c3c(c(O)cc2o1)[C@](O)(Cc1cc(=O)cc(O)o1)C[C@@H](O)C3	> 50 µM	> 50 µM	> 50 µM	–	–	–	> 50 µM
> 50 µM	< 50 µM	Cc1cc(=O)c2c(C/C=C/[C@@H](O)Cc3cc(O)cc(=O)o3)cc(O)cc2o1	> 50 µM	> 50 µM	> 50 µM	–	–	–	> 50 µM
0.8 µM	5.91 µM	COc1cccc2c1C(=O)c1c(O)c3c(c(O)c1C2=O)C[C@@](O)(C(=O)CO)C[C@@H]3O[C@H]1C[C@H](N)[C@H](O)[C@H](C)O1 [DOXORUBICIN HYDROCHLORIDE]	11.2 µM	–	–	–	–	–	0.33 µM

SMILES	IC50 (NCI-H446)	IC50 (ASPC1)	IC50 [1]	IC50 (K562)	IC50 (MDA-MB-231)	Activity (Staphylococcus aureus [2])	Activity (Bacillus cereus)	Activity (Staphylococcus aureus [3])	IC50 [4]
CC1=CC(=O)c2c(O)cccc2[C@@]12Oc1cc(O)cc(C)c1C2=O	2.26 µM	> 50 µM	< 50 µM	> 50 µM	> 50 µM	Weak_effect	Weak_effect	Weak_effect	> 50 µM
CC1=CC(=O)c2c(O)cccc2[C@]12Oc1cc(O)cc(C)c1C2=O	> 50 µM	> 50 µM	> 50 µM	> 50 µM	> 50 µM	Weak_effect	Weak_effect	Weak_effect	> 50 µM
Cc1cc(=O)c2c(CCCC(=O)Cc3cc(O)cc(=O)o3)cc(O)cc2o1	< 50 µM	> 50 µM	> 50 µM	> 50 µM	> 50 µM	Weak_effect	Weak_effect	Weak_effect	< 50 µM
